{"source": "patent US20260315505A1", "about": "“COMBINED INHIBITION OF TYROSINE PHOSPHATASES TCPTP AND PTP1B AND PD-1 BLOCKAGE IMMUNOTHERAPY IN THE TREATMENT OF CANCER” (Kanyr Pharma Inc., priority 2022, published 2026)", "key": {"[1]": {"system": "E.G7 targets (lysis by CD8 T cells / CTLs)", "test": "in vitro cytotoxicity of CTLs against OVA expressing E.G7 thymoma cells", "assay_type": "cell-based, mouse", "conditions": "C57BL/6 CTLs; relative to Inh1; FIG. 12C", "description": "FIG. 5A Illustrates that pharmacological inhibition of TCPTP and PTP1B results in enhanced cytotoxicity and effector differentiation. CD8 T cells from OT-1 mice were activated/expanded by αCD3/αCD28 antibodies and IL-2 in the presence of different concentrations of TCPTP/PTP1B inhibitor (Inh1) for 5 days. Specific cytotoxicity against OVA expressing E.G7 thymoma cells was measure.\nFIG. 12C illustrates the specific cytotoxicity against OVA expressing E.G7 thymoma cells from 5-day C57BL/6 CTLs treated with Inh1 or Inh2 at the concentrations specified. (one of three experiments shown).\nTo understand the functional capabilities of the CD8 T cells with combined deficiency of TCPTP and PTP1B, the conditional mutant mice of Example 1 were bred with OT-1 transgenic mice. […] Effector CD8 T cells also contribute to the immune response by the secretion of cytokines as IFN-γ, consequently the presence of this cytokine in the supernatant of target cell stimulated CTLs by ELISA was measured. An increase of the secretion of IFN-γ was detected in TCPTP and PTP1B single deficient cells at low effector to target ratios which was more stepped in the […] cells (FIG. 3C). […]\nAs the differentiation state of CD8 T cells was altered in the various genotypes analyzed before, how treatment with Inh1 altered the expression of differentiation markers was determined by flow cytometric analysis (FIGS. 5D and 5E). […]"}, "[2]": {"conditions": "humans; phase 1 clinical studies; cited from earlier work"}, "[3]": {"conditions": "mice; cited from earlier work"}}, "note": "Where two headings read alike, the source gives them in different places.", "data": [{"smiles": "N#CCc1ccc2cc(Br)c(C(F)(F)P(=O)(O)O)cc2c1", "note": "[Inh2]", "values": [{"measurement": "concentration inducing similar biological activity to Inh1", "setting": "[1]", "result": 5, "unit": "times lower"}, {"measurement": "systemic tolerability", "setting": "[2]", "result": "tolerated systemically"}, {"measurement": "systemic tolerability", "setting": "[3]", "result": "tolerated systemically"}]}]}
